# Legend:
# [1] = target: T1, GDP-loaded K-Ras (1-169) G12D, C51S, C80L, C118S (Homo sapiens, UniProt P01116, C118S/C51S/C80L/G12D); assay: K-Ras G12D(GDP) cross-linking assay (conjugate formation, TOF mass spectrometry); type: binding; details: Table 5; percent covalently modified K-Ras by MS; room temperature; typical compound conc. 2, 10, 25 μM, endpoints 1 and 24 h
# T1 construct: GDP-loaded K-Ras (1-169) G12D, C51S, C80L, C118S
# Method: (§1) Protocol: K-Ras G12D(GDP) Cross-Linking Assay
# (§2) Note: while the following protocol outlines the procedure for K-Ras G12D(GDP), a person of skill in the art may substitute other Ras proteins, and may also substitute a non-hydrolyzable GTP analog for GDP to study GTP bound Ras protein.
# (§3) GDP-loaded K-Ras (1-169) G12D, C51S, C80L, C118S and GDP-loaded K-Ras (1-169) C51S, C80L, C118S were adjusted to 50 μM in K-Ras assay buffer (12.5 mM HEPES, 75 mM NaCl and 1 mM MgCl2 at pH 7.4). A 5 μL aliquot of each protein solution was added to each well of a 96-well microplate containing 40 μL of assay buffer. Initial compound stocks were prepared in DMSO at 100 times their final assay concentration. Compounds were then diluted 10-fold into K-Ras assay buffer to 10 times their final concentration. A 5 μL aliquot of each diluted compound solution was added to each protein solution in the 96-well microplate to initiate the reaction, which then proceeded at room temperature. Typical final compound concentrations were 2, 10, and 25 μM. At each time point, the reactions were analyzed immediately or quenched with 5 μL of a 5% formic acid solution and kept at 4° C. until analysis. Typical assay endpoints were 1 and 24 h.
# (§4) Data collection took place on an Agilent 6230 TOF Mass Spectrometer. Complete reactions were injected onto a C4 reverse-phase column to separate protein from buffer components prior to entering the mass spectrometer. The proteins were eluted from the column by increasing acetonitrile fraction in the mobile phase and fed directly into the mass analyzer. Initial analysis of raw data took place in Agilent MassHunter BioConfirm software and consisted of deconvolution of multiple protein charge states with the maximum entropy algorithm, with a mass step of 1 Da. The heights of all deconvoluted protein masses were exported for further data analysis. The percent modification of each protein was then determined by calculating the peak height of the covalently modified K-Ras species as a percentage of the sum total of K-Ras protein peak height.
# [2] = target: T2, GDP-loaded K-Ras (1-169) C51S, C80L, C118S (Homo sapiens, UniProt P01116, C118S/C51S/C80L); assay: K-Ras WT (GDP) cross-linking assay (conjugate formation, TOF mass spectrometry); type: binding; design: key: 0: No observed x-linking; +: 0 < x ≤ 20; ++: 20 < x ≤ 40; +++: 40 < x ≤ 100; details: Table 5; percent covalently modified K-Ras by MS; room temperature; typical compound conc. 2, 10, 25 μM, endpoints 1 and 24 h
# T2 construct: GDP-loaded K-Ras (1-169) C51S, C80L, C118S
# Method: as §1, §2, §3, §4
SMILES,G12D x-linking (%) [1],WT x-linking (%) [2]
"COCCN=C=N[C@H]1CCN(c2nc(OC[C@@H]3CCCN3C)nc3c2CCN(c2cccc4cccc(C)c24)C3)C[C@@H]1CC#N [Example 76, 2-((3S,4S)-4-((((2-methoxyethyl)imino)methylene)amino)-1-(7-(8-methylnaphthalen-1-yl)-2-(((S)-1-methylpyrrolidin-2-yl)methoxy)-5,6,7,8-tetrahydropyrido[3,4-d]pyrimidin-4-yl)piperidin-3-yl)acetonitrile]",+++ (40 < x ≤ 100),++ (20 < x ≤ 100)
"Cc1cccc2cccc(N3CCc4c(nc(OC[C@@H]5CCCN5C)nc4N4CCN(C(=O)[C@H]5CN5Cc5ccccc5)[C@@H](CC#N)C4)C3)c12 (stereo partly drawn) [Example 96, 2-((S)-1-((R)-1-benzylaziridine-2-carbonyl)-4-(7-(8-methylnaphthalen-1-yl)-2-(((S)-1-methylpyrrolidin-2-yl)methoxy)-5,6,7,8-tetrahydropyrido[3,4-d]pyrimidin-4-yl)piperazin-2-yl)acetonitrile]",+ (0 < x ≤ 20),+ (0 < x ≤ 20)
"Cc1cccc2cccc(N3CCc4c(nc(OC[C@@H]5CCCN5C)nc4N4CCN(C(=O)[C@@H]5CN5Cc5ccccc5)[C@@H](CC#N)C4)C3)c12 (stereo partly drawn) [Example 97, 2-((S)-1-((S)-1-benzylaziridine-2-carbonyl)-4-(7-(8-methylnaphthalen-1-yl)-2-(((S)-1-methylpyrrolidin-2-yl)methoxy)-5,6,7,8-tetrahydropyrido[3,4-d]pyrimidin-4-yl)piperazin-2-yl)acetonitrile]",+ (0 < x ≤ 20),+ (0 < x ≤ 20)
"CC(=O)N1C[C@@H]1C(=O)N1CCN(c2nc(OC[C@@H]3CCCN3C)nc3c2CCN(c2cccc4cccc(C)c24)C3)C[C@@H]1CC#N [Example 98, 2-((S)-1-((R)-1-acetylaziridine-2-carbonyl)-4-(7-(8-methylnaphthalen-1-yl)-2-(((S)-1-methylpyrrolidin-2-yl)methoxy)-5,6,7,8-tetrahydropyrido[3,4-d]pyrimidin-4-yl)piperazin-2-yl)acetonitrile]",+ (0 < x ≤ 20),0
"CC(=O)N1C[C@H]1C(=O)N1CCN(c2nc(OC[C@@H]3CCCN3C)nc3c2CCN(c2cccc4cccc(C)c24)C3)C[C@@H]1CC#N [Example 99, 2-((S)-1-((S)-1-acetylaziridine-2-carbonyl)-4-(7-(8-methylnaphthaien-1-yl)-2-(((S)-1-methylpyrrolidin-2-yl)methoxy)-5,6,7,8-tetrahydropyrido[3,4-d]pyrimidin-4-yl)piperazin-2-yl)acetonitrile]",+ (0 < x ≤ 20),+ (0 < x ≤ 20)
"Cc1cccc2cccc(N3CCc4c(nc(OC[C@@H]5CCCN5C)nc4N4CCN(C[C@H]5CN5)[C@@H](CC#N)C4)C3)c12 [Example 100, 2-((S)-1-(((R)-aziridin-2-yl)methyl)-4-(7-(8-methylnaphthalen-1-yl)-2-(((S)-1-methylpyrrolidin-2-yl)methoxy)-5,6,7,8-tetrahydropyrido[3,4-d]pyrimidin-4-yl)piperazin-2-yl)acetonitrile]",+ (0 < x ≤ 20),+ (0 < x ≤ 20)
"Cc1cccc2cccc(N3CCc4c(nc(OC[C@@H]5CCCN5C)nc4N4CCN(C[C@@H]5CN5)[C@@H](CC#N)C4)C3)c12 [Example 101, 2-((S)-1-(((S)-aziridin-2-yl)methyl)-4-(7-(8-methylnaphthalen-1-yl)-2-(((S)-1-methylpyrrolidin-2-yl)methoxy)-5,6,7,8-tetrahydropyrido[3,4-d]pyrimidin-4-yl)piperazin-2-yl)acetonitrile]",+ (0 < x ≤ 20),+ (0 < x ≤ 20)
"COc1ccccc1CN=C=N[C@@H]1CCN(c2nc(OC[C@@H]3CCCN3C)nc3c2CCN(c2cccc4cccc(C)c24)C3)C[C@@H]1CC#N [Example 102, 2-((3S,4R)-4-((((2-methoxybenzyl)imino)methylene)amino)-1-(7-(8-methylnaphthalen-1-yl)-2-(((S)-1-methylpyrrolidin-2-yl)methoxy)-5,6,7,8-tetrahydropyrido[3,4-d]pyrimidin-4-yl)piperidin-3-yl)acetonitrile]",+ (0 < x ≤ 20),+ (0 < x ≤ 20)
"COCCN1C[C@@H]1C(=O)N1CCN(c2nc(OC[C@@H]3CCCN3C)nc3c2CCN(c2cccc4cccc(C)c24)C3)C[C@@H]1CC#N (stereo partly drawn) [Example 105, 2-((S)-1-((R)-1-(2-methoxyethyl)aziridine-2-carbonyl)-4-(7-(8-methylnaphthalen-1-yl)-2-(((S)-1-methylpyrrolidin-2-yl)methoxy)-5,6,7,8-tetrahydropyrido[3,4-d]pyrimidin-4-yl)piperazin-2-yl)acetonitrile]",++ (20 < x ≤ 40),+ (0 < x ≤ 20)
"COCCN1C[C@H]1C(=O)N1CCN(c2nc(OC[C@@H]3CCCN3C)nc3c2CCN(c2cccc4cccc(C)c24)C3)C[C@@H]1CC#N (stereo partly drawn) [Example 106, 2-((S)-1-((S)-1-(2-methoxyethyl)aziridine-2-carbonyl)-4-(7-(8-methylnaphthalen-1-yl)-2-(((S)-1-methylpyrrolidin-2-yl)methoxy)-5,6,7,8-tetrahydropyrido[3,4-d]pyrimidin-4-yl)piperazin-2-yl)acetonitrile]",+ (0 < x ≤ 20),+ (0 < x ≤ 20)
"Cc1cccc2cccc(N3CCc4c(nc(OC[C@@H]5CCCN5C)nc4N4CCN(C(=O)[C@@H]5CN5C)[C@@H](CC#N)C4)C3)c12 (stereo partly drawn) [Example 107, 2-((S)-1-((S)-1-methylaziridine-2-carbonyl)-4-(7-(8-methylnaphthalen-1-yl)-2-(((S)-1-methylpyrrolidin-2-yl)methoxy)-5,6,7,8-tetrahydropyrido[3,4-d]pyrimidin-4-yl)piperazin-2-yl)acetonitrile]",+ (0 < x ≤ 20),0

# Other lines, results leading:
G12D x-linking (%) [1],WT x-linking (%) [2],SMILES
++ (20 < x ≤ 40),+ (0 < x ≤ 20),"CO[C@@H]1CCC[C@@H]1N=C=NC1CCN(c2nc(OC[C@@H]3CCCN3C)nc3c2CCN(c2cccc4cccc(C)c24)C3)CC1 (single isomer, unassigned) [Example 149]"
+ (0 < x ≤ 20),+ (0 < x ≤ 20),"CO[C@H]1CCC[C@H]1N=C=NC1CCN(c2nc(OC[C@@H]3CCCN3C)nc3c2CCN(c2cccc4cccc(C)c24)C3)CC1 (single isomer, unassigned) [Example 150]"
+ (0 < x ≤ 20),+ (0 < x ≤ 20),"COc1ccccc1CN=C=N[C@H]1CCN(c2nc(OC[C@@H]3CCCN3C)nc3c2CCN(c2cccc4cccc(C)c24)C3)C[C@@H]1CC#N [Example 103, 2-((3S,4S)-4-((((2-methoxybenzyl)imino)methylene)amino)-1-(7-(8-methylnaphthalen-1-yl)-2-(((S)-1-methylpyrrolidin-2-yl)methoxy)-5,6,7,8-tetrahydropyrido[3,4-d]pyrimidin-4-yl)piperidin-3-yl)acetonitrile]"
+ (0 < x ≤ 20),+ (0 < x ≤ 20),"COc1ccccc1CN=C=N[C@H]1C[C@H](Nc2nc(OC[C@@H]3CCCN3C)nc3c2CCN(c2cccc4cccc(C)c24)C3)C1 [Example 104, N-((1R,3S)-3-((((2-methoxybenzyl)imino)methylene)amino)cyclobutyl)-7-(8-methylnaphthalen-1-yl)-2-(((S)-1-methylpyrrolidin-2-yl)methoxy)-5,6,7,8-tetrahydropyrido[3,4-d]pyrimidin-4-amine]"
+ (0 < x ≤ 20),+ (0 < x ≤ 20),"COC(=O)[C@H]1CN1C(=O)N1CCN(c2nc(OC[C@@H]3CCCN3C)nc3c2CCN(c2cccc4cccc(C)c24)C3)C[C@@H]1CC#N [Example 108, methyl (R)-1-((S)-2-(cyanomethyl)-4-(7-(8-methylnaphthalen-1-yl)-2-(((S)-1-methylpyrrolidin-2-yl)methoxy)-5,6,7,8-tetrahydropyrido[3,4-d]pyrimidin-4-yl)piperazine-1-carbonyl)aziridine-2-carboxylate]"
